Assay results published in patent US6767738B1, “Method of isolating adult mammalian CNS-derived progenitor stem cells using density gradient centrifugation” (The Salk Institute for Biological Studies, priority 1999, dated 2004).

System: c-fos mRNA (Trk receptor tyrosine kinase signaling)
Experiment: RT-PCR analysis of neurotrophin-dependent c-fos induction
Type: cell-based, rat
Conditions: pretreatment with RA for 6 days
Description: Cell Culture. For proliferating conditions, clonal stem cells (AP14) were cultured in Dulbecco's Modified Eagles Medium/Ham's F12 (DMEM/F12, 1:1) containing N2 supplement (Gibco BRL, Gaithersburg, Md.) and 20 ng/ml rhFGF-2 (provided by A. Baird, Prizm Pharmaceuticals Inc., La Jolla, Calif.). Culture dishes (Becton Dickinsin Labware, Lincoln Park, N.J.) were coated with polyomithine and mouse laminin as previously described by Ray, et al., Proliferation, differentiation and long-term culture of primary hippocampal neurons, Proc Natl Acad Sci USA 90:3602-3606 (1993). For differentiation experiments, cells were plated into polyornithine/laminin coated glass chamber slides (Nunc, Naperville, Ill.) at a density of 2.5—103 per cm2. The cells were incubated for 24 hrs in normal N2 medium containing 20 ng/ml FGF-2, and then the medium was replaced by N2 medium containing 0.5% […] (FBS) and 0.01% DMSO (control solvent) or […] all-trans retinoic acid (Sigma, St. Louis, Mo.). For further differentiation, the medium was replaced by N2 medium containing 0.5% FBS and one of the following: sterile water (control solvent), mouse 2.55 NGF (50 ng/ml, Boehringer Mannheim, Indianapolis, Ind.), rhBDNF (20 ng/ml, Alomone Labs, Jerusalem, Israel), rhNT-3 (40 ng/ml, Genentech, South San Francisco, Calif.). The medium was replaced every two days. For inhibition of the tyrosine kinase activity of the Trk receptors, K-252a (100 nM, Calbiochem, San Diego, Calif.) was added to the medium.
Reverse Transcription-PCR Analysis. Total RNA from stem cells was isolated using RNeasy Total RNA Kits (Qiagen, Chatsworth, Calif.) according to manufacturer's instructions. Fifty nanograms of total RNA was reverse transcribed using avian myeloblastosis virus reverse transcriptase (Promega, Madison, Wis.) with random hexamers ([…]) as primers in a […] reaction mixture. For PCR amplification, two sets of specific oligonucleotide pairs ([…]) were used: one directed to the transcript of interest, and one for a constitutively expressed transcript, either ribosomal protein L27 or L27a. Reactions were performed in a […] reaction mixture containing 10 mM Tris-Cl (pH 8.4), 50 mm KCl, 1.5 mM MgC12, […] each of the four dNTPs, 2 mCi of [a-32P]dCTP and 5 units of Taq polymerase (Promega) using a thermal cycler (Perkin-Elmer, Foster City, Calif.) with a regimen of 1 min at 94° C., 2 min at 60° C. (55° C. for trk receptors) and 2 min at 72° C. for 23 cycles Fifty microliters of each reaction was analyzed by electrophoresis on 8% polyacrylamide gels followed by autoradiography. […] Under these conditions, the L27 amplification product was directly proportional to the amount of input RNA, up to 50 ng total RNA. Oligonucleotide primers used are as follows: […]
RA treatment also results in neurotrophin-dependent induction of c-fos. Transient and rapid induction of immediate early genes such as c-fos is a well-characterized response to extracellular stimuli in neural cells. c-fos is induced after neurotrophin treatment in cultured […] hippocampal or cortical cells and the signaling cascade following c-fos induction is considered to be integral to subsequent steps in differentiation. To determine whether upregulation of mRNAs for trk receptors and p75NGFR observed in the stem cell cultures results in the acquisition of functional Trk-dependent stimulation of c-fos, mRNA was examined by RT-PCR analysis after stimulating RA-treated cells with neurotrophins. […]

## CC1=C(/C=C/C(C)=C/C=C/C(C)=C/C(=O)O)C(C)(C)CCC1 [RA, all-trans retinoic acid]
  baseline expression of c-fos mRNA: increased
